What all share (assay): NCI tumour cell line growth inhibition, 48 h
Test [1] concerns OVCAR-4.
Test [2] has as its system Malme-3M.
Test [3] concerns HT-29.
The subject of test [4] is Hs-578T.
In test [5] the test system is IGROV-1.
The test system of test [6] is MDA-MB-435.
The test system of test [7] is SF-268.
The subject of test [8] is EKVX.
In test [9] the test system is SK-MEL-5.
For test [10], the system named is HCT-116.
In test [11] the test system is OVCAR-3.
Test [12] has as its system SN12C.
Test [13] has as its system SK-OV-3.
The subject of test [14] is MOLT-4.
Test [15] concerns TK-10.
The subject of test [16] is U-251.
Test [17] deals with T47D.
In test [18] the test system is PC-3.
In test [19] the test system is UO-31.

The structures appear in SMILES notation.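 All cell lines were grown in 96-well plates and treated with compound for 48 hours. GI50 = concentration required for 50% inhibition of growth.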 Calls of active or inactive are those of the source. Rule as the data show it: active = GI50 up to about 1.1 µM and inactive = higher.

Take `CCOP(=O)(OCC)/C(C#N)=C/c1ccccn1`: the GI50 in test [1], in test [2], in test [3], in test [4], in test [5] and in test [6] was > 100 µM (inactive) each time. For the same compound, the GI50 in test [7], in test [8], in test [9], in [10], in [11] and in [12] was > 100 µM (inactive) each time. In addition, the GI50 in [13], in test [14], in [15], in [16] and in [17] was > 100 µM (inactive) throughout.
As for `CC(C)=C1C(=O)C[C@]2(C)C[C@H]3/C(=C(/C)CCC12)CC[C@@]3(C)O` (stereo partly drawn), the GI50 in test [18] was 30.7 µM (inactive); in test [1], > 50 µM (inactive); in test [3], > 50 µM (inactive); in test [4] it was > 50 µM (inactive); in test [19] it was > 50 µM (inactive); in [5], > 50 µM (inactive). Besides, the GI50 in test [6] was > 50 µM (inactive); in test [7] it was > 50 µM (inactive); in test [8], > 50 µM (inactive); in test [9], 40.4 µM (inactive); in test [10] it was 46.2 µM (inactive); in [11], 37.7 µM (inactive). Besides, the GI50 in test [12] is > 50 µM (inactive); in test [13], > 50 µM (inactive); in test [14], 14.9 µM (inactive); in [15], > 50 µM (inactive); in test [16] it was > 50 µM (inactive); in test [17], 46.9 µM (inactive).
For the compound `O=[N+]([O-])c1cccc(-c2ncnc(-c3cccc([N+](=O)[O-])c3)n2)c1`, the GI50 in test [18] was > 100 µM (inactive); in test [2], > 100 µM (inactive); in test [3] it was > 100 µM (inactive); in test [4] it was 51.2 µM (inactive); in test [19], > 100 µM (inactive); in test [5], > 100 µM (inactive). Besides, the GI50 in test [6] was > 100 µM (inactive); in test [7], 54 µM (inactive); in test [8], > 100 µM (inactive); in [9], > 100 µM (inactive); in [10] it was > 100 µM (inactive); in test [11], 35.9 µM (inactive). In addition, the GI50 was > 100 µM (inactive) in test [12]; 27.1 µM (inactive) in test [13]; > 100 µM (inactive) in [14]; 44.5 µM (inactive) in test [15]; 23.5 µM (inactive) in test [16]; 81.8 µM (inactive) in [17].
For `C=CCOCn1ccc(NC(=O)c2ccccc2)nc1=O`, the GI50 in test [18], in test [2], in test [3], in test [4], in test [19] and in test [5] was > 100 µM (inactive) each time. Besides, the GI50 in [6], in test [7], in test [8], in test [9], in test [10] and in test [12] was > 100 µM (inactive) each time. The GI50 in test [13], in test [14], in test [15] and in test [17] was > 100 µM (inactive) each time.
On to `CN(C)Cc1cc(/N=N/c2ccccc2)ccc1O`, for which the GI50 in test [18] was 75.7 µM (inactive); in [2] it was 47.3 µM (inactive); in test [3], 32.4 µM (inactive); in test [4], 33 µM (inactive); in [19], 21.9 µM (inactive); in test [5] it was 32.5 µM (inactive). Moreover, the GI50 in test [6] was 34.8 µM (inactive); in test [7], 38.8 µM (inactive); in test [8], 40 µM (inactive); in test [9], 15.1 µM (inactive); in test [10], > 100 µM (inactive); in [11], 68.2 µM (inactive). Further, the GI50 in test [12] is > 100 µM (inactive); in test [14] it was 33.9 µM (inactive); in test [15] it was 34.6 µM (inactive); in test [16] it was > 100 µM (inactive); in test [17] it was 44.1 µM (inactive).
`COC1=CC(=O)C(C2(OC(C)C)OC(=O)C(Cl)=C2Cl)=CC1=O` (stereo not drawn): the GI50 in test [18] is > 100 µM (inactive); in test [2], > 100 µM (inactive); in [3] it was > 100 µM (inactive); in [4] it was > 100 µM (inactive); in test [19], 74.5 µM (inactive); in test [6] it was 41.3 µM (inactive). The GI50 in test [7], in test [8], in [9], in test [10], in test [11] and in [12] was > 100 µM (inactive) each time. Further, the GI50 in test [13], in [15] and in test [17] was > 100 µM (inactive) each time.
As to `Cc1ccc(-n2cc(-c3ccc(Cl)cc3)c3c(=N)n(N)cnc32)cc1`, the GI50 was 6.41 µM (inactive) in [18]; 10.5 µM (inactive) in test [1]; 13.2 µM (inactive) in [2]; 8.24 µM (inactive) in test [3]; 3.71 µM (inactive) in test [4]; 11.7 µM (inactive) in test [19]. The GI50 in test [5] was 12 µM (inactive); in test [6] it was 11.1 µM (inactive); in [7], 12.7 µM (inactive); in test [8], 16.4 µM (inactive); in [9] it was 7.43 µM (inactive); in [10], 7.8 µM (inactive). Further, the GI50 in [11] is 13.5 µM (inactive); in test [12], 16 µM (inactive); in test [13] it was 17.4 µM (inactive); in [15], 15.3 µM (inactive); in test [16], 10.5 µM (inactive).
`O=C1c2ccccc2C(=O)c2c(NCCCN3CCOCC3)ccc(NCCCN3CCOCC3)c21`: the GI50 in test [18] is 2.61 µM (inactive); in test [1], 2.67 µM (inactive); in test [2], 8.89 µM (inactive); in test [3], 1.14 µM (inactive); in test [4], 5.45 µM (inactive); in test [19], 3.01 µM (inactive). Besides, the GI50 in [5] was 4.69 µM (inactive); in test [7], 2.75 µM (inactive); in test [8] it was 11 µM (inactive); in test [9], 2.51 µM (inactive); in test [10], 1.23 µM (inactive); in [11], 4.07 µM (inactive). In addition, the GI50 is 2.18 µM (inactive) in test [12]; 1.09 µM (active) in [14]; 12.9 µM (inactive) in [15]; 3.24 µM (inactive) in test [16]; 29.3 µM (inactive) in test [17].
As to `O=[N+]([O-])c1ccc(/C(=C\c2ccccc2)Cn2ccnc2)cc1`, the GI50 was 24.8 µM (inactive) in test [18]; 40.5 µM (inactive) in test [1]; 85.5 µM (inactive) in [2]; 14 µM (inactive) in test [3]; 29.1 µM (inactive) in test [4]; 13.6 µM (inactive) in test [19]. Also, the GI50 in [5] is 24.6 µM (inactive); in [6] it was 34.4 µM (inactive); in [8], 43.9 µM (inactive); in test [9], 29.9 µM (inactive); in test [10], 23.6 µM (inactive); in test [12], 35 µM (inactive). Moreover, the GI50 in test [13] was 38.4 µM (inactive); in test [14] it was 24 µM (inactive); in test [15] it was 32.7 µM (inactive); in test [16], 33.3 µM (inactive); in test [17], 34.8 µM (inactive).
Regarding `CCOC(=O)C1=COC(C)(c2ccccc2)CC1=O` (stereo not drawn), the GI50 is > 100 µM (inactive) in test [18]; > 100 µM (inactive) in [1]; > 100 µM (inactive) in [3]; 88.9 µM (inactive) in test [4]; > 100 µM (inactive) in test [19]; > 100 µM (inactive) in [6]. The GI50 in [7], in [8], in test [9], in [10], in test [11] and in test [12] was > 100 µM (inactive) each time. Besides, the GI50 in test [13] is > 100 µM (inactive); in test [14] it was 49.7 µM (inactive); in test [15], > 100 µM (inactive); in test [16], > 100 µM (inactive); in test [17] it was > 100 µM (inactive).
For the compound `C=C(CC[C@@H](C(=O)O)[C@H]1[C@H](O)C[C@@]2(C)C3=CC[C@@H](C(=C)C)[C@](C)(CCC(=O)O)C3=CC[C@]12C)C(C)C` [PORICOIC ACID A], the GI50 was 18.7 µM (inactive) in test [18]; 21.1 µM (inactive) in test [1]; 22.5 µM (inactive) in test [2]; 17.6 µM (inactive) in test [3]; 22.6 µM (inactive) in [4]; 17.2 µM (inactive) in test [19]. Also, the GI50 was 18.8 µM (inactive) in test [6]; 17.6 µM (inactive) in [8]; 20.4 µM (inactive) in test [9]; 16.4 µM (inactive) in [10]; 19.1 µM (inactive) in test [11]; 16.7 µM (inactive) in [12]. The GI50 is 18 µM (inactive) in test [13]; 22.1 µM (inactive) in [14]; 17.8 µM (inactive) in [15]; 18 µM (inactive) in [16]; 23.8 µM (inactive) in test [17].
For the compound `COc1cc(NC(C)=O)ccc1C(=O)N/N=C/c1ccco1`, the GI50 is > 100 µM (inactive) in test [18]; > 100 µM (inactive) in test [1]; > 100 µM (inactive) in test [2]; > 100 µM (inactive) in test [3]; > 100 µM (inactive) in test [4]; 67.1 µM (inactive) in [19]. Further, the GI50 is > 100 µM (inactive) in test [5]; > 100 µM (inactive) in test [6]; > 100 µM (inactive) in test [7]; > 100 µM (inactive) in [8]; 44.5 µM (inactive) in [9]; > 100 µM (inactive) in test [10]. Besides, the GI50 in test [11] was > 100 µM (inactive); in test [12], > 100 µM (inactive); in test [13] it was > 100 µM (inactive); in [14], 31.3 µM (inactive); in test [17], > 100 µM (inactive).

Values taken from ChEMBL document CHEMBL1201862, “PubChem BioAssay data set” (2004).
